# Test system: yeast genes (level of expressed mRNA)
# Assay: DNA chip analysis of expressed mRNA of yeast genes after 2 h culture with a toxic chemical substance
# Assay type: cell-based, Saccharomyces cerevisiae S288C
# Conditions: for The level of expressed mRNA in the presence of chemical substance/ (ratio to absence of chemical substance): stress protein genes, DNA chip
# Procedure: Yeast (Saccharomyces cerevtisiae S288C (α SUC2mal mel gap2 CUP1)) were cultured at 25° C. on YPD medium (yeast extract 1%, polypepton 2%, glucose 2%). One of toxic chemical substances was added to the cell at logarithmic growth phase, and the cell was further cultured for two hours. Cell was cultured without any chemical substance in the same condition, and was used as control. Concentrations of the chemical substances were defined to inhibit the growth of the yeast but not lead to death.
# After the completion of cultivation, the culture was centrifuged to collect the cells. To the cells, sodium acetate buffer (50 mM sodium acetate, 10 mM EDTA, 1% SDS) was added, and the mixture was shaken at 65° C. for five minutes, followed by returning to room temperature, and obtaining the supernatant, which procedure was repeated two times. To the supernatant, ½ amount of a solution of phenol/chloroform was added, and the mixture was centrifuged to give a supernatant, which was added with an equal amount of chloroform, and the mixture was centrifuged to give a supernatant. To the supernatant, an equal amount of isopropanol containing 0.3 M sodium acetate was added, and the mixture was allowed to stand at room temperature for 30 minutes, after which the mixture was centrifuged to give a sediment of the whole RNAs. Seventy % ethanol was added to the sediment, and the mixture was again centrifuged to give a sediment, which was then dried and dissolved in water. mRNA was isolated from the whole RNAs as followings. In view of the fact that a poly A chain is attached to the 3′ terminus of mRNA, a polynucleotide having a poly T structure which was immobilized on the surface of latex beads was used to trap the mRNA, and then the mRNA was washed and eluted with spine column (Oligotex-dT30<Super>mRNA Purification Kit, Takara). Reverse transcription of the mRNA was conducted with a reverse transcriptase (Super Script II Reverse Transcriptase; catalogue No. 18064-014, GibcoBRL) using fluorescence-labeled nucleotides to give cDNAs that were introduced with Cy3-dUTP or Cy5-dUTP during the reverse transcription.
# The labeled cDNAs were dissolved in TE buffer (10 mM Tris-HCl/1 mM EDTA, pH8.0), and the solution was dropped on the DNA chip containing the whole genes of yeast (DNA Chip Research Inc. Japan) so that the cDNAs were hybridized on the DNA chip at 65° C. for over 12 hours. The fluoresces intensity of the DNA chip was read with a scanner, and the ratio relative to the fluorescence intensity resulting from the absence of chemical substance was estimated as the following, which is shown in Tables 1 to 9: [formula]
# In the Tables, “Intensity” indicated in the rightmost column is a value of the level of expressed mRNA of each gene in control cells as divided by the average level of the expressions of the whole genes.
structure (smiles),measurement,setting,value
"S=C([S-])NCCNC(=S)[S-].[Zn+2] [(11), zinc N,N′-ethylenebis(dithiocarbamate)]",The level of expressed mRNA in the presence of chemical substance/absence: YOR253W,gene YOR253W,0.9
same,The level of expressed mRNA in the presence of chemical substance/absence: YOR267C,gene YOR267C,0.4
same,The level of expressed mRNA in the presence of chemical substance/absence: YOR325W,gene YOR325W,0.6
same,level of expressed mRNA in the presence of chemical substance/in its absence,gene YOR336W,1.4
same,level of expressed mRNA in the presence of chemical substance/in its absence,gene YOR344C,0.6
same,level of expressed mRNA in the presence of chemical substance/in its absence,gene YOR347C,1.4
same,The level of expressed mRNA in the presence of chemical substance/absence: YPL005W,gene YPL005W,1.1
same,level of expressed mRNA in the presence of chemical substance/in its absence,gene YPL017C,0.4
same,"The level of expressed mRNA in the presence of chemical substance / the level in the absence of chemical substance, yeast gene YPL107W","gene YPL107W, DNA chip fluorescence ratio to control without chemical, 2 hours culture with chemical, growth-inhibiting non-lethal concentration",1.1
same,"The level of expressed mRNA in the presence of chemical substance / the level in the absence of chemical substance, yeast gene YPL138C","gene YPL138C, DNA chip fluorescence ratio to control without chemical, 2 hours culture with chemical, growth-inhibiting non-lethal concentration",0.5
same,The level of expressed mRNA in the presence of chemical substance/absence: YPL150W,gene YPL150W,1.1
same,The level of expressed mRNA in the presence of chemical substance/absence: YPL151C,gene YPL151C,0.9
same,The level of expressed mRNA in the presence of chemical substance/absence: YPL152W,gene YPL152W,1.4
same,The level of expressed mRNA in the presence of chemical substance/absence: YPL168W,gene YPL168W,0.7
same,The level of expressed mRNA in the presence of chemical substance/absence: YPL180W,gene YPL180W,1.0
same,The level of expressed mRNA in the presence of chemical substance/absence: YPL188W,gene YPL188W,1.0
same,The level of expressed mRNA in the presence of chemical substance/absence: YPL221W,gene YPL221W,1.0
same,The level of expressed mRNA in the presence of chemical substance/absence: YPL225W,gene YPL225W,0.9
same,The level of expressed mRNA in the presence of chemical substance/absence: YPL249C,gene YPL249C,0.9
same,The level of expressed mRNA in the presence of chemical substance/absence: YPL260W,gene YPL260W,1.0
same,level of expressed mRNA in the presence of chemical substance/in its absence,gene YPL265W,1.8
same,level of expressed mRNA in the presence of chemical substance/in its absence,gene YPR006C,2.4
same,level of expressed mRNA in the presence of chemical substance/in its absence,gene YPR026W,1.6
same,The level of expressed mRNA in the presence of chemical substance/absence: YPR049C,gene YPR049C,0.9
same,The level of expressed mRNA in the presence of chemical substance/absence: YPR061C,gene YPR061C,1.6
same,The level of expressed mRNA in the presence of chemical substance/absence: YPR093C,gene YPR093C,1.2
same,The level of expressed mRNA in the presence of chemical substance/absence: YPR146C,gene YPR146C,1.4
same,The level of expressed mRNA in the presence of chemical substance/absence: YPR148C,gene YPR148C,0.9
same,The level of expressed mRNA in the presence of chemical substance/absence: YPR150W,gene YPR150W,0.9
same,The level of expressed mRNA in the presence of chemical substance/absence: YPR158W,gene YPR158W,1.5
same,The level of expressed mRNA in the presence of chemical substance/absence: YPR169W,gene YPR169W,1.0
same,The level of expressed mRNA in the presence of chemical substance/absence: YPR172W,gene YPR172W,1.9
same,The level of expressed mRNA in the presence of chemical substance/absence: YPR174C,gene YPR174C,0.7
same,The level of expressed mRNA in the presence of chemical substance/The level of expressed mRNA in the absence of chemical substance,yeast gene YAR010C,0.9
same,The level of expressed mRNA in the presence of chemical substance/The level of expressed mRNA in the absence of chemical substance,yeast gene YBL005W-A,0.8
same,"The level of expressed mRNA in the presence of chemical substance/ (ratio to absence), gene YBL038W","yeast gene YBL038W, mitochondria-located protein genes, 2 h culture with chemical",0.7
same,The level of expressed mRNA in the presence of chemical substance/The level of expressed mRNA in the absence of chemical substance,yeast gene YBL041W,1.6
same,The level of expressed mRNA in the presence of chemical substance/The level of expressed mRNA in the absence of chemical substance,yeast gene YBL043W,1.5
same,The level of expressed mRNA in the presence of chemical substance/The level of expressed mRNA in the absence of chemical substance,yeast gene YBL078C,4.6
same,The level of expressed mRNA in the presence of chemical substance/ (ratio to absence of chemical substance),yeast gene YBL093C,1.3
same,"The level of expressed mRNA in the presence of chemical substance/ (in its absence), gene YBR036C","yeast gene YBR036C, ratio of DNA chip fluorescence intensity to that without chemical substance",1.5
same,The level of expressed mRNA in the presence of chemical substance/ (ratio to absence of chemical substance),yeast gene YBR044C,1.1
same,"The level of expressed mRNA in the presence of chemical substance/ (ratio to absence), gene YBR122C","yeast gene YBR122C, mitochondria-located protein genes, 2 h culture with chemical",1.2
same,The level of expressed mRNA in the presence of chemical substance/The level of expressed mRNA in the absence of chemical substance,yeast gene YBR214W,3.2
same,"The level of expressed mRNA in the presence of chemical substance/ (ratio to absence), gene YBR251W","yeast gene YBR251W, mitochondria-located protein genes, 2 h culture with chemical",1.5
same,"The level of expressed mRNA in the presence of chemical substance/ (in its absence), gene YBR298C","yeast gene YBR298C, ratio of DNA chip fluorescence intensity to that without chemical substance",1.5
same,The level of expressed mRNA in the presence of chemical substance/The level of expressed mRNA in the absence of chemical substance,yeast gene YCL020W,1.3
same,The level of expressed mRNA in the presence of chemical substance/The level of expressed mRNA in the absence of chemical substance,yeast gene YCL027W,0.9
same,The level of expressed mRNA in the presence of chemical substance/The level of expressed mRNA in the absence of chemical substance,yeast gene YCR004C,1.9
same,"The level of expressed mRNA in the presence of chemical substance/ (ratio to absence), gene YCR046C","yeast gene YCR046C, mitochondria-located protein genes, 2 h culture with chemical",1.5
same,The level of expressed mRNA in the presence of chemical substance/The level of expressed mRNA in the absence of chemical substance,yeast gene YCR071C,1.1
same,"The level of expressed mRNA in the presence of chemical substance/ (ratio to absence), gene YCR083W","yeast gene YCR083W, mitochondria-located protein genes, 2 h culture with chemical",1.8
same,The level of expressed mRNA in the presence of chemical substance/ (ratio to absence of chemical substance),yeast gene YCR083W,1.8
same,The level of expressed mRNA in the presence of chemical substance/The level of expressed mRNA in the absence of chemical substance,yeast gene YCR088W,1.0
same,The level of expressed mRNA in the presence of chemical substance/The level of expressed mRNA in the absence of chemical substance,yeast gene YDL008W,0.9
same,"The level of expressed mRNA in the presence of chemical substance/ in its absence, gene YDL067C","yeast gene YDL067C, energy system protein genes, 2 h culture with the chemical, ratio to control without chemical",1.4
same,"The level of expressed mRNA in the presence of chemical substance/ (ratio to absence), gene YDL067C","yeast gene YDL067C, mitochondria-located protein genes, 2 h culture with chemical",1.4
